A short description of data set [1]: Plasma cholesterol lipoprotein profiles (CLiP). In kind it is in vivo, mouse. As to conditions: 16 weeks atherogenic diet, daily i.p. As for the experimental part:
Plasma cholesterol lipoprotein profiles were measured using our recently-developed CLiP method (Garber et al. (2000) J. Lipid Res. 41:1020–1026). Briefly, 5 to 10 μl of plasma were analyzed using a single Superose 6 (Pharmacia, Piscataway N.J.) column. Immediately following the column, cholesterol reagent was introduced through a mixing tee, and the eluent:reagent mixture entered a post-column reaction coil. Cholesterol content of the eluent mixture was spectrophotometrically detected at 500 nm, and data points were collected into a computer. The resulting profiles were decomposed into component peaks and analyzed for relative area using PeakFit (SPSS Science, Chicago, Ill.); absolute cholesterol values for total cholesterol and each component peak were determined by comparison with a control sample of known values. In some cases fractions were collected to determine distribution of radioactivity. The CLiP method allowed analysis of individual mouse samples, avoiding the use of pooled samples.

Data set [2] in a line: Circular dichroism, percent helicity. The class given is physicochemical. As for the experimental part: Briefly, spectra were obtained using a cell with a 0.1 cm path length and measurements were taken every nm from 260 nm to 190 nm at 25° C. All the CD spectra were signal averaged by adding four scans, base line corrected and smoothed. Peptide solutions in PBS, pH 7.4, were used at a concentration of 11 μM. Peptide-DMPC complexes (1:20 mol:mol) were used to determine the effect of lipid binding on the helicity of these peptides. These complexes were prepared by adding the appropriate volume of peptide solution to DMPC multilamellar vesicles. DMPC multilamellar vesicles were prepared as follows: A known amount of lipid was dissolved in ethanol and the solvent was removed by evaporating slowly under a thin stream of nitrogen. Residual solvent was removed by storing the lipid film under vacuum overnight. An appropriate volume of PBS, pH 7.4 was added to the thin lipid film to give the required final concentration of DMPC.

Data set [3] can be described thus: DSC, chain melting transition of DMPC. In kind it is physicochemical. As to conditions: DMPC/peptide 100:1 (mol/mol). The protocol: A known amount of phospholipid was dissolved in chloroform. For one set of samples, peptide was dissolved in methanol and added to a solution of DiPoPE in chloroforn/methanol (2:1, v:v). For both, pure lipid samples and the organic solutions of lipid and peptide, solvent was removed under a slow stream of nitrogen. Residual solvent was removed under vacuum. […] For DMPC, four consecutive scans with a 60 minute equilibration time between scans were taken. DSC thermograms were analyzed using the software provided by MicroCal Inc., Amherst, Mass., and Origin, version 5.0.
The effect of these 18A analogues on the chain melting transition of multilamellar vesicles of DMPC was studied by DSC using peptide-lipid mixtures at 100:1 lipid/peptide molar ratio.
For orientation: DSC measures the heat that a sample takes up or gives off during a temperature scan.

Data set [4] is described as follows: Right angle light scattering, dissolution of EPC MLVs. In kind it is physicochemical. As to conditions: 105 μM EPC, equimolar peptide, 25° C., 30 min. As for the experimental part:
EPC MLVs were prepared by evaporating a solution of EPC (Avanti Polar, AL) under nitrogen and hydrating the lipid film with phosphate-buffered saline (pH 7.4). […] Turbidity clarification was monitored for 30 min.

Data set [5] concerns the target T1, lecithin:cholesterol acyl transferase (LCAT) (Homo sapiens, UniProt P04180).
T1 construct: LCAT was isolated from fresh normolipidemic plasma by the method of Albers et al; from tissue; host or cells: fresh normolipidemic plasma
T1 sequence (P04180 25-440): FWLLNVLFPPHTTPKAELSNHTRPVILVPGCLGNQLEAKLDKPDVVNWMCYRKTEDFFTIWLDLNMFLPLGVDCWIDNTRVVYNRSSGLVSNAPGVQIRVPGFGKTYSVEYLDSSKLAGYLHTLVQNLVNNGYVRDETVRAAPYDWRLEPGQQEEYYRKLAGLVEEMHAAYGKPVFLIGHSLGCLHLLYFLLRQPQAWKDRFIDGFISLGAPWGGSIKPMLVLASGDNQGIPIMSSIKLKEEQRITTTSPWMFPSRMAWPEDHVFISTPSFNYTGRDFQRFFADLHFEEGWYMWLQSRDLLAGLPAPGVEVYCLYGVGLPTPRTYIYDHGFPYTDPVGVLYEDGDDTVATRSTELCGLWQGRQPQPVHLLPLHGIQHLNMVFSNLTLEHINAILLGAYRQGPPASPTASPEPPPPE
The data set is described as follows: Assay of LCAT activity. The class given is biochemical. As to conditions: 20 μg/ml peptide, egg PC-cholesterol vesicles. As for the experimental part:
LCAT was isolated from fresh normolipidemic plasma by the method of Albers et al. (1986) Methods Enzymol. 129: 763–783, with some modifications. The density of the plasma was adjusted to 1.21 g/ml and it was centrifuged at 175,000 g for 24 h. The LCAT containing fraction was subjected to Affi-Gel Blue chromatography followed by DE-52 chromatography. LCAT was eluted from the DE-52 column using a 75 to 200 mM NaCl gradient in Tris buffer (10 mM, pH 7.6).
The substrate was prepared by sonicating egg PC/cholesterol (90:20 mol/mol) containing trace amounts of 7α-^3H cholesterol in a Branson 250 sonifier for 12 mins to obtain small unilamellar vesicles. The substrate (50 μl) was incubated with 5 μg of peptide or human apo A-I and 50 μl of BSA (40 μg/ml) for 1 h at 37° C. The total volume was brought up to 150 μl. After incubating for 1 h, 100 μl of LCAT was added and incubated for 1 h at 37° C. and the reaction was quenched by spotting 10 μl on a silica strip. Cholesterol and cholesteryl ester were separated by thin layer chromatography of the silica strip in hexane:chloroform (2:1 v/v) mixture. […] The positions of the standards were used to cut the strip into two and the two parts were counted in scintillation fluid in a Packard Tri Carb 4530. […] The activation of LCAT by the peptides is expressed as a percentage of the total activation by apo A-I .

Data set [6] concerns human artery wall cell cocultures. In words: LDL-induced monocyte chemotactic activity with the homologous series of peptides (Example 3). The class given is cell-based. As to conditions: peptide at 100 μg/ml, LDL 250 μg protein/ml, 8 h. The protocol:
Microtitre plates were treated with 0.1% gelatin at 37° C. overnight. HASMC were added at a confluent density of 1×10^5 cells/cm^2. […] HAEC were subsequently added at 2×10^5 cells/cm^2 and were allowed to grow, forming a complete monolayer of confluent HAEC in two days. In all experiments, HAEC and autologous HASMC (from the same donor) were used at passage levels of four to six. […] The cocultures were treated with native LDL(250 μg protein/ml) or presence of HDL (350 μg protein/ml) or peptides for 8 h.

The conditions of data set [7]: mouse, in vivo.
Method: The 5F peptide, MoAI, and human apo A-I were labeled with ^125I by the method of Bilheimer et al. (1972) Biochim. Biophys. Acta 260: 212–221. Mice were placed on a modified Thomas-Hartroft atherogenic diet (#TD88051; Teklad, Madison, Wis.) for four weeks at which time daily intraperitoneal injections of peptide or protein dissolved in 200 μl phosphate-buffered saline (PBS) were begun. Animals injected with MoAI or human apo A-I received 50 μg per animal; those injected with 5F received 20 μg. Animals were not fasted for the kinetic studies and blood samples were taken under xylazine:ketamine anesthesia from the retro-orbital sinus at 15, 30, and 45 minutes, and 1, 1.5, 2, 3, 4, 6, 8, 12, and 24 hours following injection. Each animal provided three blood samples at different time points (all retro-orbital and alternating eyes), and at least three samples were collected (from different animals) at each time point. Samples were collected into heparinized capillary tubes, then placed in microcentrifuge tubes; the plasma was separated by centrifugation. Duplicate 10 μl aliquots of each sample were taken for radioactivity determination, using gamma counting (Cobra; Packard Instruments, Downers Grove, Ill.) for 10 minutes per sample. Total plasma volume was calculated as 4.2% body weight. Each sample was expressed as percent of injected CPM in total plasma. Free ^125I was determined by trichloroacetic acid (TCA) precipitation (1 ml of 10% TCA per 10 μl plasma sample). Fitting to the kinetic model was done using all data points, rather than averages at each time point (PKAnalyst, MicroMath Scientific Software, Salt Lake City, Utah).
Treatment groups were compared by two-tailed t-tests or one way analysis of variance (where the data were normally distributed), or by one way analysis of variance on ranks (SigmaStat; SPSS Science, Chicago, Ill.). Kinetics of peptide or protein turnover were analyzed by fitting to a first order one-compartment kinetic model assuming non-equal input and output rates (PKAnalyst; MicroMath Scientific Software, Salt Lake City, Utah).

In the case of “Ac-DWLKAFYDKVFEKFKEFF-NH2 [Peptide 5F, Ac-D-W-L-K-A-F-Y-D-K-V-F-E-K-F-K-E-F-F-NH2]”, in data set [1], the “HDL as percent of total cholesterol” value is recorded as “(9.24 ± 1.18%*)”, the “IDL + LDL as percent of total cholesterol” value was “(42.80 ± 2.51%)” and the “VLDL as percent of total cholesterol” value is “(47.96 ± 3.26%)”. In addition, in data set [1] (mean ± SEM), the HDL cholesterol was 17.92 ± 2.91 mg/dL, the “IDL + LDL cholesterol” value was found to be 83.37 ± 8.15 mg/dL, the “TC (total cholesterol)” value amounted to 201.63 ± 25.21 mg/dL and the VLDL cholesterol is 100.34 ± 15.72 mg/dL. For the same substance, the “Percent Helicity PBS” value in data set [2] (11 μM peptide in PBS) is recorded as 55%. In addition, in data set [2] (11 μM peptide, Peptide: DMPC 1:20 (mol/mol)), the “Percent Helicity DMPC” value is on record as 76%. For the same substance, in data set [3] (1.5 mM DMPC, chain melting transition temperature), the “TCM(° C.)” value worked out at 23.2 °C. For the same substance, in data set [3] (enthalpy of the transition), the “ΔHCM (kcals/mol)” value is 4.9 kcals/mol. For the same substance, in data set [3] (width at half maximum of the transition), the “ΔT1/2 (° C.)” value was 0.5 °C. In addition, in data set [4], the “clarification of EPC MLVs” value is on record as “clarified the EPC MLVs to a similar extents”. Further, the “LCAT activation relative to apo A-I (100%)” value in data set [5] is recorded as 80 % of apo A-I. Also, the “inhibition of LDL-induced monocyte chemotaxis” value in data set [6] was “significant and similar inhibition”. The “T½” value in data set [7] (C57BL/6J, ip) worked out at 6.22 h. Also, in data set [7], the “Max. % in plasma” value was determined as 14.29%.

Source of the values: patent publication US7144862B2, “Orally administered peptides to ameliorate atherosclerosis” (The Regents of the University of California, priority 2000, dated 2006).
